Key:
[1] = tested on: Kasumi-1 (acute myeloid leukemia, KIT mutation Asn822Lys); test: Calcein AM cytotoxicity assay; type: cell-based; details: Homo sapiens, 72 h; Kasumi-1; Calcein AM, three days; read-out: EC50 values (μM) Kasumi-1
Summary of the method: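 Kasumi-1 cells were grown in RPMI-1640 + 15% FBS, other lines at 37° C., 5% CO2, and seeded the day before compound addition in triplicates at various concentrations. After 3 days, viability was read with Calcein AM (1 μg/ml final, 1 h) as live-cell fluorescence at ex 485/em 538 nm.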

[2] = tested on: H1703 (non-small cell lung carcinoma, PDGFRA amplification); test: Calcein AM cytotoxicity assay; type: cell-based; details: Homo sapiens, NCI-H1703, 72 h, three days
Summary of the method: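 3-day compound exposure, triplicates, various concs; cells seeded the day before. Read-out: Calcein AM (1 μg/ml final), 1 h, fluorescence ∝ viable cells. Culture 37° C, 5% CO2.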

[3] = tested on: HL60; test: Calcein AM cytotoxicity assay; type: cell-based; details: Homo sapiens, HL-60, 72 h, three days
[4] = target: T1, CDK5/p35 (Homo sapiens, UniProt Q00535); test: Kinase inhibition assay with [γ-33P]ATP; type: biochemical; details: histone H1, 0.15 μM ATP
T1 construct: purchased ProQinase GmbH
T1 sequence (Q00535 whole entry): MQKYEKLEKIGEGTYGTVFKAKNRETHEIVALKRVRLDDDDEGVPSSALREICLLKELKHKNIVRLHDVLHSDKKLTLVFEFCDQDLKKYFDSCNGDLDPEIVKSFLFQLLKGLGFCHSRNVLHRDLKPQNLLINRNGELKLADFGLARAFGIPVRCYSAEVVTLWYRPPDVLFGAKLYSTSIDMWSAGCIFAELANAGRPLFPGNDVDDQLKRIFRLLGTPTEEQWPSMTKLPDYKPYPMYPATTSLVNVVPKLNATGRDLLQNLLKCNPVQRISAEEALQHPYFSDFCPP
T1 sequence (Q15078 whole entry partner): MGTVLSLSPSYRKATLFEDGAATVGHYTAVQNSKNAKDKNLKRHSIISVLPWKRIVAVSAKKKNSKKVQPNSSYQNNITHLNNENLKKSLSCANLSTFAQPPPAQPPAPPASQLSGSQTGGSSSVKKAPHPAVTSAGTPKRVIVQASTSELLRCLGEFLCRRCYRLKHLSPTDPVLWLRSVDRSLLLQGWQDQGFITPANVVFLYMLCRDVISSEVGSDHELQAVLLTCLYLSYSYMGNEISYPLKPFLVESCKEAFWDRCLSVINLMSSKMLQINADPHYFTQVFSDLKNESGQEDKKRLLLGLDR
Summary of the method: (§1)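 Radiometric [γ-33P]ATP assay in HEPES pH 7.5 with Mg2+/Mn2+: CDK1/Cyclin B (Sf9-expressed) and purchased CDK5/p35 with 1 mg/mL histone H1 at 15 and 0.15 μM ATP respectively; FLT3 WT and FLT3-ITD with AGLT substrate at 1 μM ATP. Reactions stopped with H3PO4, spotted onto phosphocellulose and washed.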

[5] = target: T2, CDK1/Cyclin B (Homo sapiens, UniProt P06493); test: Kinase inhibition assay with [γ-33P]ATP; type: biochemical; details: histone H1, 15 μM ATP
T2 construct: made in house; host or cells: Sf9 insect cells, baculoviral infection
T2 sequence (P06493 whole entry, species assumed): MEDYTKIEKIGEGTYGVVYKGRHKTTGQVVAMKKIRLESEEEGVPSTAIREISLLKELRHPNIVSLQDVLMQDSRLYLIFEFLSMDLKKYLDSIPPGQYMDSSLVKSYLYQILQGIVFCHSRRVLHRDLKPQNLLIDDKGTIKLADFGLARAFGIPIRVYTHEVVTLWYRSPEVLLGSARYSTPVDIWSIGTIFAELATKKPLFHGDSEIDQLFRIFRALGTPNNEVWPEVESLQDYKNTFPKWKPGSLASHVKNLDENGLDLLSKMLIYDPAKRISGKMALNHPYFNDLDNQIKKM
T2 sequence (P14635 whole entry partner, species assumed): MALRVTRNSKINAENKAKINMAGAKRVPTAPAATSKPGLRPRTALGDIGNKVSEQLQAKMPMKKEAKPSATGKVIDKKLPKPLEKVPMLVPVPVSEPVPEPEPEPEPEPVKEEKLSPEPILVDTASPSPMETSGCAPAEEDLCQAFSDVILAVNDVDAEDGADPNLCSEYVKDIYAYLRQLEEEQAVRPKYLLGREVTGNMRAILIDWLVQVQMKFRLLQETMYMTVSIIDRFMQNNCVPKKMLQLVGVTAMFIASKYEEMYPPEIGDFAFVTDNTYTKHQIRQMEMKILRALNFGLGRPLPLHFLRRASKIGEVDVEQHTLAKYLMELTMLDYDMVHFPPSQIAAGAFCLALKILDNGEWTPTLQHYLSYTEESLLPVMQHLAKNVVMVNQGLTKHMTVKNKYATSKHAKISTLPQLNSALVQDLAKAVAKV
Summary of the method: as §1

| IC50 [4] [µM] | IC50 [5] [µM] | SMILES | EC50 [1] [µM] | EC50 [2] [µM] | EC50 [3] [µM] |
| --- | --- | --- | --- | --- | --- |
|  |  | NC1CCC(Nc2nc(Nc3ccc(N4CCOCC4)cc3)c3ncn(C4CCCC4)c3n2)CC1 (stereo not drawn) [Compound 1] | 0.944 | 0.189 |  |
| 0.065 | 0.045 | NC1CCC(Nc2nc(Nc3ccc(CN4CCNCC4)cc3)c3ncn(C4CCCC4)c3n2)CC1 (stereo not drawn) [Compound 2] | 0.481 |  | 3.51 |
| 0.058 | 0.034 | CN1CCN(C(=O)c2ccc(Nc3nc(NC4CCC(N)CC4)nc4c3ncn4C3CCCC3)cc2)CC1 (stereo not drawn) [Compound 3] | 1.23 |  | 1.29 |
| 0.03 | 0.013 | CN1CC2(C1)CN(c1ccc(Nc3nc(NC4CCC(O)CC4)nc4c3ncn4C3CCCC3)cc1)C2 (stereo not drawn) [Compound 7] |  |  |  |
| 0.065 | 0.037 | NCCNc1nc(Nc2ccc(CN3CCNCC3)cc2)c2ncn(C3CCCC3)c2n1 [Compound 14] | 0.781 |  | 2.68 |
|  |  | CN1CCN(C(=O)c2ccc(Nc3nc(NCCCCN)nc4c3ncn4C3CCCC3)cc2)CC1 [Compound 27] | 0.637 |  | 0.989 |
|  |  | NCCCCNc1nc(Nc2ccc(N3CC4(COC4)C3)nc2)c2ncn(C3CCCC3)c2n1 [Compound 28] | 0.839 | 0.214 |  |
|  |  | CN(C)CCNc1nc(Nc2ccc(CN3CCOCC3)nc2)c2ncn(C3CCCC3)c2n1 [Compound 172] | 1.5 | 0.35 |  |
| 0.359 | 0.082 | NC1CCC(Nc2nc(Nc3ccc(N4CCCC4)cc3)c3ncn(C4CCCC4)c3n2)CC1 (stereo not drawn) [Compound 263] | 0.569 |  | 3.93 |
|  |  | NCCCCNc1nc(Nc2ccc(N3CCOCC3)cc2)c2ncn(C3CCCC3)c2n1 [Compound 265] |  | 0.482 |  |
|  |  | CCN1CCN(c2ccc(Nc3nc(NCCCCN)nc4c3ncn4C3CCCC3)cc2)CC1 [Compound 266] |  | 0.978 |  |
| 0.059 | 0.094 | NC1CCC(Nc2nc(Nc3ccc(N4CC5(COC5)C4)cc3)c3ncn(C4CCCC4)c3n2)CC1 (stereo not drawn) [Compound 272] | 0.773 | 0.412 |  |

| SMILES | IC50 [4] [µM] | IC50 [5] [µM] | EC50 [1] [µM] | EC50 [2] [µM] | EC50 [3] [µM] |
| --- | --- | --- | --- | --- | --- |
| NC1CCC(Nc2nc(Nc3ccc(CN4CCOCC4)cc3)c3ncn(C4CCCC4)c3n2)CC1 (stereo not drawn) [Compound 264] | 0.034 |  |  |  |  |
